Experimental data from patent publication US10647713B2 (Nimbus Lakshmi, Inc., priority 2016, dated 2020).

Biological target: human TYK2 (JH2domain-pseudokinase) (Homo sapiens (Human), UniProt P29597)
Assay: TYK2 JH2 Domain Binding Assay (KINOMEscan, DiscoveRx)
Settings: 11-point dilution, duplicate
How it was run: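 TYK2 JH2 (G556–D888)–NFkB DBD fusion, DNA-tagged, from HEK293 extracts (<0.1 nM) competed against immobilised biotinylated ligand for 1 h at room temperature, 0.9% DMSO. Bead-retained kinase quantified by qPCR; Kd from 11-point 3-fold series (top 30,000 nM, duplicate), Hill fit with slope −1.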

Chain of human TYK2 (JH2domain-pseudokinase) (P29597 556-888): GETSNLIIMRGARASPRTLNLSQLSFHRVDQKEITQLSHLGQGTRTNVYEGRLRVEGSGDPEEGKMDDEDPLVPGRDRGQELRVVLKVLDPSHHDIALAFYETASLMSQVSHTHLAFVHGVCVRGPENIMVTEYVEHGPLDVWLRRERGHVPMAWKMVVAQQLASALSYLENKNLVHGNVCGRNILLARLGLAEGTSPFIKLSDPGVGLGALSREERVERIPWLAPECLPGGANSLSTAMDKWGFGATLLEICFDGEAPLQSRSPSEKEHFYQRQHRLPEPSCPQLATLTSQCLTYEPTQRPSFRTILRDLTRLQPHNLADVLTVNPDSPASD

SMILES | Kd [nM]
Cc1nc2c(Nc3ccc([C@@H]4COCCO4)cc3S(C)(=O)=O)cc(NC(=O)C3CC3)nc2[nH]1 [I-611, (R)—N-(7-((4-(1,4-dioxan-2-yl)-2-(methylsulfonyl)phenyl)amino)-2-methyl-3H-imidazo[4,5-b]pyridin-5-yl)cyclopropanecarboxamide] | 0.1 to 0.5
Cc1nc2c(Nc3ccc([C@H]4COCCO4)cc3S(C)(=O)=O)cc(NC(=O)C3CC3)nc2[nH]1 [I-612, (S)—N-(7-((4-(1,4-dioxan-2-yl)-2-(methylsulfonyl)phenyl)amino)-2-methyl-3H-imidazo[4,5-b]pyridin-5-yl)cyclopropanecarboxamide] | 0.1 to 0.5
Cc1nc2c(Nc3ccc([C@H]4CCC(F)(F)CO4)cc3S(C)(=O)=O)cc(NC(=O)C3CC3)nc2[nH]1 [I-615, (R)—N-(7-((4-(5,5-difluorotetrahydro-2H-pyran-2-yl)-2-(methylsulfonyl)phenyl)amino)-2-methyl-3H-imidazo[4,5-b]pyridin-5-yl)cyclopropanecarboxamide] | 0.5 to 1
Cc1nc2c(Nc3ccc([C@@H]4CCC(F)(F)CO4)cc3S(C)(=O)=O)cc(NC(=O)C3CC3)nc2[nH]1 [I-616, (S)—N-(7-((4-(5,5-difluorotetrahydro-2H-pyran-2-yl)-2-(methylsulfonyl)phenyl)amino)-2-methyl-3H-imidazo[4,5-b]pyridin-5-yl)cyclopropanecarboxamide] | 0.1 to 0.5
CS(=O)(=O)c1ccccc1Nc1cc(Nc2ccc3c(n2)C(F)(F)CC3)nc2[nH]c(C(F)F)nc12 [I-617, N5-(7,7-difluoro-6,7-dihydro-5H-cyclopenta[b]pyridin-2-yl)-2-(difluoromethyl)-N7-(2-(methylsulfonyl)phenyl)-3H-imidazo[4,5-b]pyridine-5,7-diamine] | 0.1 to 0.5
Cc1nc2c(Nc3ccccc3S(C)(=O)=O)cc(Nc3ccc4c(n3)C(F)(F)CC4)nc2[nH]1 [I-618, N5-(7,7-difluoro-6,7-dihydro-5H-cyclopenta[b]pyridin-2-yl)-2-methyl-N7-(2-(methylsulfonyl)phenyl)-3H-imidazo[4,5-b]pyridine-5,7-diamine] | < 0.1
COCCOc1ccc(Nc2cc(Nc3ccccc3S(C)(=O)=O)c3nc(C(F)F)[nH]c3n2)nc1C#N [I-619, 6-((2-(difluoromethyl)-7-((2-(methylsulfonyl)phenyl)amino)-3H-imidazo[4,5-b]pyridin-5-yl)amino)-3-(2-methoxyethoxy)picolinonitrile] | < 0.1
COCCOc1ccc(Nc2cc(Nc3ccccc3S(C)(=O)=O)c3nc(C)[nH]c3n2)nc1C#N [I-620, 3-(2-methoxyethoxy)-6-((2-methyl-7-((2-(methylsulfonyl)phenyl)amino)-3H-imidazo[4,5-b]pyridin-5-yl)amino)picolinonitrile] | < 0.1
COCCOc1ccc(Nc2cc(Nc3ccc(F)cc3S(C)(=O)=O)c3nc(C(F)F)[nH]c3n2)nc1C#N [I-621, 6-((2-(difluoromethyl)-7-((4-fluoro-2-(methylsulfonyl)phenyl)amino)-3H-imidazo[4,5-b]pyridin-5-yl)amino)-3-(2-methoxyethoxy)picolinonitrile] | 0.1 to 0.5
COCCOc1ccc(Nc2cc(Nc3ccc(F)cc3S(C)(=O)=O)c3nc(C)[nH]c3n2)nc1C#N [I-622, 6-((7-((4-fluoro-2-(methylsulfonyl)phenyl)amino)-2-methyl-3H-imidazo[4,5-b]pyridin-5-yl)amino)-3-(2-methoxyethoxy)picolinonitrile] | < 0.1
CS(=O)(=O)c1ccccc1Nc1cc(Nc2ccc(OC3CCOCC3)c(C#N)n2)nc2[nH]c(C(F)F)nc12 [I-623, 6-((2-(difluoromethyl)-7-((2-(methylsulfonyl)phenyl)amino)-3H-imidazo[4,5-b]pyridin-5-yl)amino)-3-((tetrahydro-2H-pyran-4-yl)oxy)picolinonitrile] | < 0.1
Cc1nc2c(Nc3ccccc3S(C)(=O)=O)cc(Nc3ccc(OC4CCOCC4)c(C#N)n3)nc2[nH]1 [I-624, 6-((2-methyl-7-((2-(methylsulfonyl)phenyl)amino)-3H-imidazo[4,5-b]pyridin-5-yl)amino)-3-((tetrahydro-2H-pyran-4-yl)oxy)picolinonitrile] | < 0.1
CS(=O)(=O)c1cc(F)ccc1Nc1cc(Nc2ccc(OC3CCOCC3)c(C#N)n2)nc2[nH]c(C(F)F)nc12 [I-625, 6-((2-(difluoromethyl)-7-((4-fluoro-2-(methylsulfonyl)phenyl)amino)-3H-imidazo[4,5-b]pyridin-5-yl)amino)-3-((tetrahydro-2H-pyran-4-yl)oxy)picolinonitrile] | 0.1 to 0.5
Cc1nc2c(Nc3ccc(F)cc3S(C)(=O)=O)cc(Nc3ccc(OC4CCOCC4)c(C#N)n3)nc2[nH]1 [I-626, 6-((7-((4-fluoro-2-(methylsulfonyl)phenyl)amino)-2-methyl-3H-imidazo[4,5-b]pyridin-5-yl)amino)-3-((tetrahydro-2H-pyran-4-yl)oxy)picolinonitrile] | < 0.1
COc1c(Nc2cc(Nc3cccc(C(F)(F)F)n3)nc3[nH]c(C)nc23)cccc1-c1ncnn1C [I-627, N7-(2-methoxy-3-(1-methyl-1H-1,2,4-triazol-5-yl)phenyl)-2-methyl-N5-(6-(trifluoromethyl)pyridin-2-yl)-3H-imidazo[4,5-b]pyridine-5,7-diamine] | 1 to 10
COc1c(Nc2cc(Nc3ccc4c(n3)C(F)(F)CC4)nc3[nH]c(C)nc23)cccc1-c1ncnn1C [I-628, N5-(7,7-difluoro-6,7-dihydro-5H-cyclopenta[b]pyridin-2-yl)-N7-(2-methoxy-3-(1-methyl-1H-1,2,4-triazol-5-yl)phenyl)-2-methyl-3H-imidazo[4,5-b]pyridine-5,7-diamine] | 0.5 to 1
COc1c(Nc2cc(Nc3ccc4c(n3)C(F)(F)CC4)nc3[nH]c(C)nc23)cccc1-c1cnn(C)n1 [I-629, N5-(7,7-difluoro-6,7-dihydro-5H-cyclopenta[b]pyridin-2-yl)-N7-(2-methoxy-3-(2-methyl-2H-1,2,3-triazol-4-yl)phenyl)-2-methyl-3H-imidazo[4,5-b]pyridine-5,7-diamine] | 0.5 to 1
C#Cc1cccc(Nc2cc(Nc3ccc(F)cc3S(C)(=O)=O)c3nc(C)[nH]c3n2)n1 [I-630, N5-(6-ethynylpyridin-2-yl)-N7-(4-fluoro-2-(methylsulfonyl)phenyl)-2-methyl-3H-imidazo[4,5-b]pyridine-5,7-diamine] | < 0.1
CN=S(C)(=O)c1cc(-c2cnn(C)c2C)ccc1Nc1cc(NC(=O)C2CC2)nc2[nH]c(C(F)F)nc12 (centres unmarked) [I-631, N-(2-(difluoromethyl)-7-((4-(1,5-dimethyl-1H-pyrazol-4-yl)-2-(N,S-dimethylsulfonimidoyl)phenyl)amino)-3H-imidazo[4,5-b]pyridin-5-yl)cyclopropanecarboxamide] | < 0.1

SMILES | Kd [nM]
CN=S(C)(=O)c1cc(-c2ccn(C)n2)ccc1Nc1cc(NC(=O)C2CC2)nc2[nH]c(C(F)F)nc12 (centres unmarked) [I-632] | 0.1 to 0.5
CS(=O)(=O)c1cc(F)ccc1Nc1cc(Nc2cc3c(nn2)CCC3)nc2[nH]c(C(F)F)nc12 [I-633] | 0.1 to 0.5
CN=S(C)(=O)c1cc(-c2nc(COC)c(C)s2)ccc1Nc1cc(NC(=O)C2CC2)nc2[nH]c(C(F)F)nc12 (centres unmarked) [I-634] | 0.1 to 0.5
COCc1ccc(Nc2cc(Nc3ccc(F)cc3S(C)(=O)=O)c3nc(C(F)F)[nH]c3n2)nn1 [I-635] | 0.1 to 0.5
COCc1ccc(Nc2cc(Nc3ccc(F)cc3S(C)(=O)=O)c3nc(C)[nH]c3n2)nn1 [I-636] | 0.1 to 0.5
CN=[S@@](C)(=O)c1cc(-c2cnn(C)c2C)ccc1Nc1cc(NC(=O)C2CC2)nc2[nH]c(C(F)F)nc12 [I-637] | < 0.1
CN=[S@](C)(=O)c1cc(-c2cnn(C)c2C)ccc1Nc1cc(NC(=O)C2CC2)nc2[nH]c(C(F)F)nc12 [I-638] | 0.1 to 0.5
Cc1nc2c(Nc3ccc(F)cc3S(C)(=O)=O)cc(Nc3cc4c(nn3)CCC4)nc2[nH]1 [I-639] | < 0.1
CN=S(C)(=O)c1cc(-c2ccn(C)n2)ccc1Nc1cc(NC(=O)C2CC2)nc2[nH]c(C)nc12 (centres unmarked) [I-640] | 0.1 to 0.5
CN=S(C)(=O)c1cc(-c2nn(C)cc2C)ccc1Nc1cc(NC(=O)C2CC2)nc2[nH]c(C(F)F)nc12 (centres unmarked) [I-641] | < 0.1
Cc1cc(Nc2cc(Nc3ccc(C4CCC(C)(C)CO4)cc3S(C)(=O)=O)c3nc(C)[nH]c3n2)nc(C)n1 (centres unmarked) [I-642] | < 0.1
CS(=O)(=O)c1cc(F)ccc1Nc1cc(Nc2ccc3c(n2)CCOC3)nc2[nH]c(C(F)F)nc12 [I-643] | 0.1 to 0.5
Cc1nc2c(Nc3ccc(F)cc3S(C)(=O)=O)cc(Nc3ccc4c(n3)CCOC4)nc2[nH]1 [I-644] | 0.1 to 0.5
COc1c(Nc2cc(Nc3ccc4c(n3)CCOC4)nc3[nH]c(C(F)F)nc23)cccc1-c1ncnn1C [I-645] | 1 to 10
COc1c(Nc2cc(Nc3ccc4c(n3)CCOC4)nc3[nH]c(C(F)F)nc23)cccc1-c1cnn(C)n1 [I-646] | 0.5 to 1
COc1c(Nc2cc(Nc3cc4c(nn3)CCC4)nc3[nH]c(C(F)F)nc23)cccc1-c1ncnn1C [I-647] | 0.5 to 1
COc1c(Nc2cc(Nc3cc4c(nn3)CCC4)nc3[nH]c(C(F)F)nc23)cccc1-c1cnn(C)n1 [I-648] | 0.1 to 0.5
CN=[S@@](C)(=O)c1cc(-c2nc(COC)c(C)s2)ccc1Nc1cc(NC(=O)C2CC2)nc2[nH]c(C(F)F)nc12 [I-649] | 1 to 10
CN=[S@](C)(=O)c1cc(-c2nc(COC)c(C)s2)ccc1Nc1cc(NC(=O)C2CC2)nc2[nH]c(C(F)F)nc12 [I-650] | 0.1 to 0.5
